From patent US20110003858A1, “MULTIMERIC HETEROCYCLIC COMPOUNDS USEFUL AS NEUTROPHIL ELASTASE INHIBITORS” (priority 2006, published 2011)

Biological target: T1, Human Neutrophil Elastase (HNE) (Homo sapiens, UniProt P08246)
T1 construct: Human Neutrophil Elastase (HNE) purified from serum; purchased Calbiochem 324681; host or cells: natural enzyme purified from human serum (so in the source)
T1 sequence (P08246 30-247 limits assumed): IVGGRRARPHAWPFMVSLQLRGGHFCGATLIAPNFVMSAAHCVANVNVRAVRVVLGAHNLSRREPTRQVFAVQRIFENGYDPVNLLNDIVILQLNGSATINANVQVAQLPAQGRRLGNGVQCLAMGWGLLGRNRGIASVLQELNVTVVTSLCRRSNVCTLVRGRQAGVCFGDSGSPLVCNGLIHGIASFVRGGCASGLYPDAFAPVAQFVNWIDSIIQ
Experiment: Human Neutrophil Elastase Quenched-FRET Assay
Format: biochemical
Conditions: HNE 1.7 nM, substrate MeOSuc-AAPV-AMC 100 μM, pH 7.5; read-out: Inhibition of HNE IC50
Experimental: Human Neutrophil Elastase Quenched-FRET Assay
The assay uses Human Neutrophil Elastase (HNE) purified from serum (Calbiochem art. 324681; Ref. Baugh, R. J. et al., 1976, Biochemistry. 15, 836-841). HNE was stored in 50 mM sodium acetate (NaOAc), 200 mM sodium chloride (NaCl), pH 5.5 with added 30% glycerol at −20° C. The protease substrate used was Elastase Substrate V Fluorogenic, MeOSuc-AAPV-AMC (Calbiochem art. 324740; Ref. Castillo, M. J. et al., 1979, Anal. Biochem. 99, 53-64). The substrate was stored in dimethyl sulphoxide (DMSO) at −20° C. The assay additions were as follows: Test compounds and controls were added to black 96-well flat-bottom plates (Greiner 655076), 1 μL in 100% DMSO, followed by 30 μL HNE in assay buffer with 0.01% Triton (trade mark) X-100 detergent. The assay buffer constitution was: 100 mM Tris(hydroxymethyl)aminomethane (TRIS) (pH 7.5) and 500 mM NaCl. The enzyme and the compounds were incubated at room temperature for 15 minutes. Then 30 μl substrate in assay buffer was added. The assay was incubated for 30 minutes at room temperature. The concentrations of HNE enzyme and substrate during the incubation were 1.7 nM and 100 μM, respectively. […] Fluorescence was measured on a Wallac 1420 Victor 2 instrument at settings: Excitation 380 nm, Emission 460 nm. IC50 values were determined using Xlfit curve fitting using model 205.

Row | IC50 | Compound
1 | 0.26 nM | Cc1c(-c2ccnn2-c2ccc(C#N)cc2)cc(C(=O)NCC(O)CNC(=O)c2cc(-c3ccnn3-c3ccc(C#N)cc3)c(C)n(-c3cccc(C(F)(F)F)c3)c2=O)c(=O)n1-c1cccc(C(F)(F)F)c1 [Example 2, N,N′-(2-Hydroxypropane-1,3-diyl)bis(5-(1-(4-cyanophenyl)-1H-pyrazol-5-yl)-6-methyl-2-oxo-1-(3-(trifluoromethyl)phenyl)-1,2-dihydropyridine-3-carboxamide)]
2 | 0.61 nM | Cc1c([S+]([O-])c2ccc(C#N)cc2)cc(C(=O)NCCOCCOCCNC(=O)c2cc([S+]([O-])c3ccc(C#N)cc3)c(C)n(-c3cccc(C(F)(F)F)c3)c2=O)c(=O)n1-c1cccc(C(F)(F)F)c1 (centres unmarked) [Example 1]
